In patent publication US10080784B2, “Enhanced therapeutic usage of a purine nucleoside phosphorylase or nucleoside hydrolase prodrug” (SOUTHERN RESEARCH INSTITUTE, priority 2011, dated 2018):
Values after ≈ are worked out from the molar mass of the structure shown. “Also recorded” adds a separate entry of the source.

What was measured:
[1] = Limit of solubility of F-Ade in water; assay type: physicochemical; settings: dissolved in water
[2] = test system: parental D54 tumors (no E. coli PNP expression); assay: Intratumoral injection into parental D54 tumors (no E. coli PNP expression)
Description: Parental and E. coli PNP expressing D54MG (human glioma) tumor cells (2×10^7 cells) are injected subcutaneously into the flanks of nude mice (nu/nu) purchased from Charles River Laboratories (Wilmington, Mass.). D54 tumor cells stably transduced with E. coli PNP are prepared as described previously (Parker et al. Cancer Gene Therapy 2011 June; 18(6):390-8). Tumors are measured with calipers and an estimate of the weight calculated using the equation, (length×width^2)/2=mm^3, and converted to mg assuming unit density. […] Each treatment arm of each group contained at least 6 mice. Mice are monitored daily for weight loss and twice weekly for tumor dimensions. T-C (tumor growth delay) is taken as the difference in days to 2 doublings between drug-treated and saline-treated groups. The time to the evaluation point for each animal (2 doublings) is used as the end point in a Student's t-test, the Mann-Whitney rank sum test, or a life table analysis in order to statistically compare growth data between treatment groups. All procedures are performed in accordance with a protocol approved by the IACUC of Southern Research Institute. F-araAMP is obtained from Schering A.-G. (Berlin, Germany). In this and subsequent examples, F-Ade is obtained from General Intermediates of Canada, Inc. (Edmonton, Alberta, Canada). Treatments are initiated when tumors are 250 to 300 mg (˜1-1.5% of total animal weight).
In FIG. 2A, parental D54 tumor cells are mixed with D54 tumor cells that had been transduced with E. coli PNP to a final proportion in which 10% express the transgene. This 90/10 mixture is injected sc into the flanks of nude mice. Tumors are injected once per day for 3 consecutive days starting on day 14 with 150 μl of saline, 1.5 mg of F-araAMP dissolved in saline, or 3 mg of F-araAMP is dissolved in saline. […] In FIG. 2B, parental D54 tumor cells (no E. coli PNP expression) are injected sc into the flanks of nude mice. Tumors are inoculated once per day for 3 consecutive days starting on day 14 with 150 μl of saline, 3 mg F-araAMP is dissolved in saline, 0.15 mg of F-Ade dissolved in saline, 1.26 mg of F-Ade dissolved in […] DMSO, 0.63 mg of F-Ade dissolved in DMSO, or DMSO.
As noted above, the amount of F-araAMP given intratumorally (in FIG. 2A) is less than the total intraperitoneal dose described in FIG. 1. In order to investigate the impact of higher doses of F-araAMP, the F-araAMP is dissolved in DMSO, and given at concentrations well tolerated IT, but well above the maximally-tolerated dose if administered IP (Hong et al. Cancer Res. 2004; 64: 6610-6615). Three doses of 6 or 24 mg is administered by IT injection to tumors in which 10% of cells expressed E. coli PNP (FIG. 2C). Parental D54 tumor cells or mixtures of D54 tumor cells in which 10% of the cells express E. coli PNP are injected sc into the flanks of nude mice. Tumors are injected once per day for 3 consecutive days starting on day 17 with 150 μl of DMSO, 24 mg F-araAMP in DMSO, or 6 mg F-araAMP in DMSO.

[3] = test system: D54 tumors in which 10% of cells express E. coli PNP; assay: F-araAMP plus radiation on D54 tumors in which 10% of cells express E. coli PNP; settings: 3 mg F-araAMP in saline x3, radiation 4 Gy x3, 3 hours after injection
Description: Locally advanced solid tumors often become resistant to radiation therapy. As a test of adjuvant E. coli PNP in this setting, F-araAMP injection together with external beam radiation is investigated.
D54 tumor cells in which 10% of cells expressed E. coli PNP are injected sc into the flanks of nude mice. The tumors are treated with radiation, F-araAMP, or F-araAMP plus radiation. In two treatment groups, tumors are injected once per day for 3 consecutive days with 150 μl of either saline or 3 mg F-araAMP dissolved in saline. In two other treatment groups radiation (4 Gy) is administered once per day for 3 consecutive days 3 hours after injection of 150 μl of either saline (filled squares) or 3 mg F-araAMP dissolved in saline (open squares).

D54 tumors = assay: Radioactivity in tumors after intratumoral injection of [3H]F-araAMP, parental D54 tumors; assay type: in vivo, mice
Description: Total radioactivity is determined after injection of 3 mg [8-^3H]F-araAMP (10 μCi) into 300 mg D54 flank tumors. [8-^3H]F-araAMP is obtained from Moravek Biochemicals Inc. (Brea, Calif.). Tumors are removed from the mice at 10 minutes or 4 hours after injection and dissolved in 1 ml of Soluene 350 (Packard Instrument, Meriden, Conn.) by incubating at 55° C. for 4 hours. A portion of each extract is mixed with scintillation fluid and radioactivity determined.
In an effort to understand the pharmacodynamics of intratumoral (IT) F-araAMP, the levels of prodrug activation in parental (D54) tumors and tumors in which 10% of cells expressed E. coli PNP are monitored (Table 1). Tumor tissue is collected 10 minutes or 4 hours after IT injection of 3 mg [^3H]-F-araAMP and the amount of radioactivity remaining in the tumor mass determined.
Three mg (8,200 nmoles) of [^3H]F-araAMP (10 μCi/injection) are injected into D54 tumors or D54 tumors in which 10% of the cells express E. coli PNP as described in FIG. 2. Tumors (approximately 300 mg) are removed 10 minutes and 4 hours after injection with F-araAMP and the amount of radioactivity in each tumor determined. There are 4 tumors per group.

[4] = test system: D54 tumors that express E. coli PNP in 5% of the cells; assay: Systemic intraperitoneal F-araAMP on D54 tumors expressing E. coli PNP in 5% of cells; assay type: in vivo, nude mice
Description: Intraperitoneal treatment with F-araAMP (250 mg/kg once per day for 3 consecutive days; 167 mg/kg 3 times per day for 3 consecutive days; 100 mg/kg 5 times a day for 3 consecutive days; or vehicle control 5 times a day×3 days) began on day 17 when tumors are approximately 250 mg. […] (FIG. 1)

[5] = schedule q1d×3; cited from earlier work
[6] = test system: D54 tumors in which 10% of the cells express E. coli PNP; assay: Intratumoral injection into D54 tumors in which 10% of cells express E. coli PNP; assay type: in vivo, nude mice
Description: Parental and E. coli PNP expressing D54MG (human glioma) tumor cells (2×10^7 cells) are injected subcutaneously into the flanks of nude mice (nu/nu) purchased from Charles River Laboratories (Wilmington, Mass.). […] Tumors are measured with calipers and an estimate of the weight calculated using the equation, (length×width^2)/2=mm^3, and converted to mg assuming unit density. […] Each treatment arm of each group contained at least 6 mice. Mice are monitored daily for weight loss and twice weekly for tumor dimensions. T-C (tumor growth delay) is taken as the difference in days to 2 doublings between drug-treated and saline-treated groups. The time to the evaluation point for each animal (2 doublings) is used as the end point in a Student's t-test, the Mann-Whitney rank sum test, or a life table analysis in order to statistically compare growth data between treatment groups. […] Treatments are initiated when tumors are 250 to 300 mg (˜1-1.5% of total animal weight).

E. coli PNP [7] = molecular target: T1, E. coli PNP (Escherichia coli, UniProt P0ABP8); settings: cited from earlier work
T1 construct: expressed in transfected cells; host or cells: D54MG human glioma cells, either stably transduced by lentivirus or transduced in vivo with adenoviral vector Ad/PNP, grown as xenografts in nude mice; Crude tumor extracts were assayed

E. coli PNP [8] = molecular target: T1, E. coli PNP; assay: Measurement of E. coli PNP activity in tumor extracts; assay type: biochemical; settings: D54 tumors on day 20 after 2×10^11 VP Ad/PNP IT twice per day x3 days, FIG. 5A experiment
Description: The proportion of lentiviral transduced cells in a tumor mass is verified by measuring E. coli PNP activity in representative cancers removed from mice on the first day of drug treatment. Crude extracts are prepared as described previously (Parker et al. Human Gene Therapy 1997; 8: 1637-1644) after tumor excision from the flanks of mice. […] The formation of MeP is monitored using reverse phase HPLC. By convention, one unit of PNP activity is defined as the amount of extract necessary to cleave 1 nmole of MeP-dR per mg protein in a 1 hour period.

T1 sequence (P0ABP8 whole entry): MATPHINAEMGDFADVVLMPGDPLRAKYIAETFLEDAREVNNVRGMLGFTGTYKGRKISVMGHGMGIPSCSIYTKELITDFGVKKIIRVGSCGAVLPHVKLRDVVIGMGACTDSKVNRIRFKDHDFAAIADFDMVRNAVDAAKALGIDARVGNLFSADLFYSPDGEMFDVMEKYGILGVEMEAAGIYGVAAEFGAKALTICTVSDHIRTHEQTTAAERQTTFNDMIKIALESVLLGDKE

Nc1nc(F)nc2nc[nH]c12 [F-Ade, 2-fluoroadenine]
solubility [1]: 1000 µg/mL (≈ 6.53 mM) | Tumor growth, P versus DMSO vehicle group ([2]; 0.63 mg F-Ade in DMSO IT once per day x3, FIG. 2B): 0.011 | Antitumor effect ([2]; F-Ade 0.15 ml of 1 mg/ml in water/saline (highest possible solubility) IT): no antitumor effect; also recorded: fails to elicit antitumor activity | Antitumor effect ([2]; F-Ade in DMSO IT (0.15 ml of 8.6 mg/ml; 1.26 mg x3)): modest antitumor effect; also recorded: minimal antitumor activity | Maximally tolerated dose (MTD) ([2]; F-Ade in DMSO, three IT injections): ~1.26 mg | Decrease in body weight ([2]; three IT injections of 1.26 mg F-Ade in DMSO): 10% | Death of mice ([2]; three IT injections of 2.5 mg F-Ade in DMSO): 3 of 6 | Death of mice ([2]; three IT injections of 5 mg F-Ade in DMSO): 4 of 6

Nc1nc(F)nc2c1ncn2[C@@H]1O[C@H](COP(=O)(O)O)[C@@H](O)[C@@H]1O [F-araAMP, fludarabine phosphate]
Tumor growth, P of radiation plus F-araAMP versus F-araAMP only [3]: 0.004 | Tumor growth, P of radiation plus F-araAMP versus radiation only [3]: < 0.001 | Effect on tumor growth ([2]; IT F-araAMP, FIGS. 2B, 2D and 3): no effect | Radioactivity in tumor, nmoles F-araAMP/gram of tissue (D54 tumors; 10 min after IT injection of 3 mg [3H]F-araAMP): 980 ± 730 nmoles F-araAMP/gram of tissue | Radioactivity in tumor, nmoles F-araAMP/gram of tissue (D54 tumors; 4 hours after IT injection of 3 mg [3H]F-araAMP): 31 ± 6 nmoles F-araAMP/gram of tissue | Gross tissue damage in region surrounding the tumor ([4]; IP F-araAMP): no gross tissue damage | Decrease in body weight ([4]; IP F-araAMP, quickly regained after schedule completed): 10 to 20% | Tumor growth, P versus vehicle treated group ([4]; all IP F-araAMP groups (250 mg/kg x3, 167 mg/kg x9, 100 mg/kg x15 over 3 days), from day 17, FIG. 1): < 0.001 | Maximally tolerated dose [5]: 750 mg/kg | Weight loss ([6]; 3 mg F-araAMP IT per injection, 3 total injections): less than 4% | Tumor growth, P versus vehicle treated group ([6]; 3 mg F-araAMP in saline IT once per day x3 from day 14, FIG. 2A): < 0.001 | Tumor growth, P versus vehicle treated group ([6]; 6 mg F-araAMP in DMSO IT once per day x3 from day 17, FIG. 2C): 0.014 | Tumor ulcerations ([6]; 6 mg F-araAMP in DMSO IT x3): no ulcerations | Tumor growth, P versus vehicle treated group ([6]; 24 mg F-araAMP in DMSO IT once per day x3 from day 17, FIG. 2C): < 0.001 | Tumors that became ulcerated ([6]; 24 mg F-araAMP in DMSO IT x3): Three of the 6 | Tumors completely regressed, mice tumor-free until day 70 ([6]; 24 mg F-araAMP in DMSO IT x3, of 6 tumors, 3 sacrificed for ulceration): 3 tumors | Decrease in body weight ([6]; F-araAMP IT at the highest dose (24 mg), recovered rapidly): 7% | Tumor growth, P of 3 mg group versus 1.5 mg group ([6]; F-araAMP in saline IT once per day x3 from day 14, FIG. 2A): 0.458

Nc1nc(F)nc2c1ncn2[C@H]1C[C@H](O)[C@@H](CO)O1 [F-dAdo, 2-F-2′-deoxyadenosine]
Substrate for E. coli PNP compared with F-araA (E. coli PNP [7]): much better substrate

Ad/PNP
E. coli PNP activity in the tumors (E. coli PNP [8]): 7,500±2,000 units
